Reference: patent US7396837B2, “Antitumoral analogs of lamellarins” (Pharma Mar, S.A.U., priority 2002, dated 2008)
Read-outs that look alike come from different tables or passages of the source.

Columns and labels:
Format in all cases: cell-based
K-562 = assay: SRB colorimetric cell growth inhibition assay, K-562; details: Homo sapiens, K562, K-562; for GI50: GI=growth inhibition, read-out: GI50 K-562; for CC50: read-out: LC50 K-562; for IC (TGI): read-out: TGI K-562
Summary of the method: (§1)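 Growth inhibition (GI), cytostatic total growth inhibition (TGI) and cytotoxic cell-kill (LC) parameters were calculated from SRB-stained cultures held under constant compound exposure, triplicates averaged.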

A-549 = assay: SRB colorimetric cell growth inhibition assay, A-549; details: Homo sapiens, A549, A-549; for GI50: GI=growth inhibition, read-out: GI50 A-549; for CC50: read-out: LC50 A-549; for IC (TGI): read-out: TGI A-549
Summary of the method: as §1

SK-MEL-28 = assay: SRB colorimetric cell growth inhibition assay, SK-MEL-28; details: Homo sapiens, SK-MEL-28, MEL-28; for GI50: GI=growth inhibition, read-out: GI50 MEL-28; for CC50: read-out: LC50 MEL-28; for IC (TGI): read-out: TGI MEL-28
Summary of the method: as §1

HT-29 = assay: SRB colorimetric cell growth inhibition assay, HT-29; details: Homo sapiens, HT-29, HT-29; for GI50: GI=growth inhibition, read-out: GI50 HT-29; for CC50: read-out: LC50 HT-29; for IC (TGI): read-out: TGI HT-29
Summary of the method: as §1

LoVo = assay: SRB colorimetric cell growth inhibition assay, LoVo; details: Homo sapiens, LoVo; for GI50: GI=growth inhibition, read-out: GI50 LOVO; for CC50: read-out: LC50 LOVO; for IC (TGI): read-out: TGI LOVO
Summary of the method: as §1

LoVo-Dox = assay: SRB colorimetric cell growth inhibition assay, LoVo-Dox (MDR); details: Homo sapiens, LOVO-DOX; for GI50: GI=growth inhibition, read-out: GI50 LOVO-DOX; for CC50: read-out: LC50 LOVO-DOX; for IC (TGI): read-out: TGI LOVO-DOX
Summary of the method: as §1

DU-145 = assay: SRB colorimetric cell growth inhibition assay, DU-145; details: Homo sapiens, DU-145, DU-145; for GI50: GI=growth inhibition, read-out: GI50 DU-145; for CC50: read-out: LC50 DU-145; for IC (TGI): read-out: TGI DU-145
Summary of the method: as §1

LNCaP = assay: SRB colorimetric cell growth inhibition assay, LNCaP; details: Homo sapiens, LNCaP, LN-caP; for GI50: GI=growth inhibition, read-out: GI50 LN-caP; for CC50: read-out: LC50 LN-caP; for IC (TGI): read-out: TGI LN-caP
Summary of the method: as §1

SK-BR-3 = assay: SRB colorimetric cell growth inhibition assay, SK-BR-3; details: Homo sapiens, SK-BR-3, SK-BR-3; for GI50: GI=growth inhibition, read-out: GI50 SK-BR-3; for CC50: read-out: LC50 SK-BR-3; for IC (TGI): read-out: TGI SK-BR-3
Summary of the method: as §1

IGROV = assay: SRB colorimetric cell growth inhibition assay, IGROV; details: Homo sapiens, IGROV; for GI50: GI=growth inhibition, read-out: GI50 IGROV; for CC50: read-out: LC50 IGROV; for IC (TGI): read-out: TGI IGROV
Summary of the method: as §1

IGROV-ET = assay: SRB colorimetric cell growth inhibition assay, IGROV-ET (ET-743 resistant); details: Homo sapiens, IGROV-ET; for GI50: GI=growth inhibition, read-out: GI50 IGROV-ET; for CC50: read-out: LC50 IGROV-ET; for IC (TGI): read-out: TGI IGROV-ET
Summary of the method: as §1

HeLa = assay: SRB colorimetric cell growth inhibition assay, HeLa; details: Homo sapiens, HeLa; for GI50: GI=growth inhibition, read-out: GI50 HELA; for CC50: read-out: LC50 HELA; for IC (TGI): read-out: TGI HELA
Summary of the method: as §1

HeLa-APL = assay: SRB colorimetric cell growth inhibition assay, HeLa-APL (aplidine resistant); details: Homo sapiens, HELA-APL; for GI50: GI=growth inhibition, read-out: GI50 HELA-APL; for CC50: read-out: LC50 HELA-APL; for IC (TGI): read-out: TGI HELA-APL
Summary of the method: as §1

PANC-1 = assay: SRB colorimetric cell growth inhibition assay, PANC-1; details: Homo sapiens, PANC-1, PANC-1; for GI50: GI=growth inhibition, read-out: GI50 PANC-1; for CC50: read-out: LC50 PANC-1; for IC (TGI): read-out: TGI PANC-1
Summary of the method: as §1

[1] = cell killing (cytotoxic effect)
[2] = total growth inhibition (cytostatic effect)
[3] = LC=cell killing (cytotoxic effect)
[4] = TGI=total growth inhibition (cytostatic effect)

COc1cc(-c2c3c4cc(OC)c(OC(=O)C[C@H](N)C(C)C)cc4oc(=O)c3n3ccc4cc(OC(=O)C[C@H](N)C(C)C)c(OC)cc4c23)ccc1OC(=O)C[C@H](N)C(C)C [Compound 206]
GI50 (K-562): 31.1 nM | CC50 (K-562; [1]): 4230 nM | IC (TGI) (K-562; [2]): 1110 nM | GI50 (A-549): 55.8 nM | CC50 (A-549; [1]): 2770 nM | IC (TGI) (A-549; [2]): 410 nM | GI50 (SK-MEL-28): 44 nM | CC50 (SK-MEL-28; [1]): 1040 nM | IC (TGI) (SK-MEL-28; [2]): 169 nM | GI50 (HT-29): 1320 nM | CC50 (HT-29; [1]): 10500 nM | IC (TGI) (HT-29; [2]): 10500 nM | GI50 (LoVo): 167 nM | CC50 (LoVo; [1]): 660 nM | IC (TGI) (LoVo; [2]): 331 nM | GI50 (LoVo-Dox): 294 nM | CC50 (LoVo-Dox; [1]): 6370 nM | IC (TGI) (LoVo-Dox; [2]): 1010 nM | GI50 (DU-145): 21.8 nM | CC50 (DU-145; [1]): 72.5 nM | IC (TGI) (DU-145; [2]): 39.9 nM | GI50 (LNCaP): 75.2 nM | CC50 (LNCaP; [1]): 3330 nM | IC (TGI) (LNCaP; [2]): 475 nM | GI50 (SK-BR-3): 70.1 nM | CC50 (SK-BR-3; [1]): 2890 nM | IC (TGI) (SK-BR-3; [2]): 451 nM | GI50 (IGROV): 52.7 nM | CC50 (IGROV; [1]): 589 nM | IC (TGI) (IGROV; [2]): 194 nM | GI50 (IGROV-ET): 29.7 nM | CC50 (IGROV-ET; [1]): 589 nM | IC (TGI) (IGROV-ET; [2]): 190 nM | GI50 (HeLa): 50.5 nM | CC50 (HeLa; [1]): 1930 nM | IC (TGI) (HeLa; [2]): 330 nM | GI50 (HeLa-APL): 83.4 nM | CC50 (HeLa-APL; [1]): 2820 nM | IC (TGI) (HeLa-APL; [2]): 523 nM | GI50 (PANC-1): 137 nM | CC50 (PANC-1; [1]): 6250 nM | IC (TGI) (PANC-1; [2]): 1270 nM

COc1cc(-c2c3c4cc(OC)c(OC(C)C)cc4oc(=O)c3n3ccc4c([N+](=O)[O-])cccc4c23)ccc1OC(C)C [Compound 54]
GI50 (K-562): 3760 nM | CC50 (K-562; [3]): 17200 nM | IC (TGI) (K-562; [4]): 14200 nM | GI50 (A-549): 2850 nM | CC50 (A-549; [3]): 17200 nM | IC (TGI) (A-549; [4]): 15100 nM | GI50 (SK-MEL-28): 1530 nM | CC50 (SK-MEL-28; [3]): 17200 nM | IC (TGI) (SK-MEL-28; [4]): 5700 nM | GI50 (HT-29): 1520 nM | CC50 (HT-29; [3]): 17200 nM | IC (TGI) (HT-29; [4]): 17200 nM | GI50 (LoVo): 3400 nM | CC50 (LoVo; [3]): 17200 nM | IC (TGI) (LoVo; [4]): 8940 nM | GI50 (LoVo-Dox): 12500 nM | CC50 (LoVo-Dox; [3]): 17200 nM | IC (TGI) (LoVo-Dox; [4]): 17200 nM | GI50 (DU-145): 2880 nM | CC50 (DU-145; [3]): 17200 nM | IC (TGI) (DU-145; [4]): 7160 nM | GI50 (LNCaP): 1710 nM | CC50 (LNCaP; [3]): 11100 nM | IC (TGI) (LNCaP; [4]): 4340 nM | GI50 (SK-BR-3): 1050 nM | CC50 (SK-BR-3; [3]): 17200 nM | IC (TGI) (SK-BR-3; [4]): 4310 nM | GI50 (IGROV): 884 nM | CC50 (IGROV; [3]): 13300 nM | IC (TGI) (IGROV; [4]): 4020 nM | GI50 (IGROV-ET): 6640 nM | CC50 (IGROV-ET; [3]): 17200 nM | IC (TGI) (IGROV-ET; [4]): 17200 nM | GI50 (HeLa): 616 nM | CC50 (HeLa; [3]): 17200 nM | IC (TGI) (HeLa; [4]): 2710 nM | GI50 (HeLa-APL): 3830 nM | CC50 (HeLa-APL; [3]): 17200 nM | IC (TGI) (HeLa-APL; [4]): 17200 nM | GI50 (PANC-1): 711 nM | CC50 (PANC-1; [3]): 17200 nM | IC (TGI) (PANC-1; [4]): 2590 nM
